PMC9666779 (Frontiers in Pharmacology, 2022)
Bridge positions count the residues as written; N and C are the ends. Square brackets hold non-standard residues; d marks the D form. Peptide text beside a SMILES is read from it.

Assays:
[1] = molecular target: NRP1 (Homo sapiens, UniProt O14786); assay: biochemical; assay type: binding
[2] = molecular target: Mpro (Severe acute respiratory syndrome coronavirus 2, UniProt P0DTD1); assay: biochemical; assay type: binding, SARS-CoV-2
[3] = molecular target: SARS-CoV-2 Mpro (Severe acute respiratory syndrome coronavirus 2, UniProt P0DTD1); assay: biochemical
Experimental: According to a previously reported method ([Du et al., 2021]), the FRET-based enzymatic assay was used to evaluate the inhibitory effects of the peptides on Mpro. First, the Mpro (250 nM at a final concentration) was incubated with various concentrations of tested peptides in 90 μL reaction buffer for 30 min in a black 96-well plate, and then the reaction was initiated by adding 10 μL of […] FRET-based peptide substrate (Dabcyl-KTSAVLQ/SGFRKME-Edans). The reaction was monitored for 1 h, and the initial velocity was calculated using the data by linear regression. The IC50 was calculated by plotting the initial velocity against various concentrations of testing inhibitor by using a four parameters dose−response curve in Prism software.

[4] = tested on: FHs 74 Int cells; assay: MTT cytotoxicity assay, FHs 74 Int cells; assay type: cell-based, human; settings: 50 μM, 48 h
Experimental: According to a previously reported method ([Zheng et al., 2021b]), 293T, A549 and FHs 74 Int cells were plated in 96-well plates at a density of 5 × 10^4 cells per well. After incubation for 24 h, the peptide solution was added into the plates and the cells were incubated for 48 h. After that, the incubation medium was removed, the cells were washed with PBS at pH 7.4, and then MTT stock solution (0.5 mg/ml) was added into each well and incubated for another 4 h. The medium was removed by centrifugation, and the precipitated cells were lysed using DMSO. After the purple crystals were completely dissolved, the cell viability was calculated according to the absorbance signals measured by a microplate reader at the wavelength of 570 nm.
Figure S2. The cytotoxicity effects of MNs 1-4 on FHs 74 Int cells detected using MTT assay. Cells were treated with the concentration of 50 μM of peptides for 48 h. The results are represented as mean ± SD (n = 3).

NRP1, sequence (O14786 273-427): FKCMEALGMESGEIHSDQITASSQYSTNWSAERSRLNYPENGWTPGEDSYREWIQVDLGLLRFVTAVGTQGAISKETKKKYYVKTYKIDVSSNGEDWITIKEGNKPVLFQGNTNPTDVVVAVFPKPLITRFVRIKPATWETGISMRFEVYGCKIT

| SMILES | Kd [1] | Mpro, Kd ([2]; MST, mean ± SD (n = 3)) | IC50 [3] | Kd [2] | viability of FHs 74 Int cells (cytotoxicity) [4] |
| --- | --- | --- | --- | --- | --- |
| CC(C)C[C@@H]1NC(=O)[C@H](CCC(N)=O)NC(=O)[C@H](CCCNC(=N)N)NC(=O)[C@H](C)NC(=O)[C@H](CCCCN)NC(=O)[C@@H]2CSSC[C@@H](C(=O)N[C@@H](CC(=O)O)C(=O)N[C@@H](CCCCN)C(=O)N3CCC[C@H]3C(=O)N[C@@H](CCCNC(=N)N)C(=O)N[C@@H](CCCNC(=N)N)C(=O)O)NC(=O)[C@H](CCCNC(=N)N)NC(=O)[C@H](CSSC[C@H](NC(=O)[C@@H](N)CO)C(=O)N[C@@H](CCCCN)C(=O)N[C@@H](CC(N)=O)C(=O)N[C@@H]([C@@H](C)O)C(=O)N[C@@H](CC(=O)O)C(=O)N[C@@H](CO)C(=O)N[C@@H](CCCNC(=N)N)C(=O)N2)NC(=O)[C@H]([C@@H](C)O)NC(=O)[C@H](CCCNC(=N)N)NC(=O)[C@H](CCC(=O)O)NC(=O)[C@H](CC(N)=O)NC(=O)[C@H](CC(C)C)NC(=O)[C@H](CCC(=O)O)NC1=O [EG3287, reference compound] (H-SCKNTDSRCKARQLELNERTCRCDKPRR-OH; disulfide 2-21, 9-23; N-terminus assumed) | 912 ± 10.6 nM | no binding affinity | – | – | – |
| CC(C)C[C@@H]1NC(=O)[C@H](C(C)C)NC(=O)[C@H](C)NC(=O)[C@H](Cc2ccccc2)NC(=O)[C@H](CCC(N)=O)NC(=O)[C@H](CC(C)C)NC(=O)[C@@H](Cc2ccccc2)NC(=O)[C@H](N)CSSC[C@H](C(=O)NCC(=O)NCC(=O)NCC(=O)N[C@@H](CCCNC(=N)N)C(=O)N2CCC[C@H]2C(=O)N[C@@H](CCCNC(=N)N)C(=O)N[C@@H](CCCNC(=N)N)C(=O)NCC(=O)N[C@@H](CCCNC(=N)N)C(=O)O)NC(=O)[C@H](CCC(N)=O)NC(=O)[C@H](CCCCN)NC(=O)[C@H](CCCNC(=N)N)NC(=O)[C@H](CCCNC(=N)N)NC(=O)[C@H](Cc2c[nH]cn2)NC(=O)[C@H](CCCNC(=N)N)NC1=O [MN-1] (H-[dC][dF]LQFAVLRHRRKQ[dC]GGGRPRRGR-OH; disulfide 1-15) | 95.6 ± 4.1 nM | – | 56.3 ± 3.9 nM | 53.4 ± 2.5 nM | – |
| CC(C)C[C@@H]1NC(=O)[C@H](C(C)C)NC(=O)[C@H](C)NC(=O)[C@H](Cc2ccc(O)cc2)NC(=O)[C@H](CCC(N)=O)NC(=O)[C@H](CC(C)C)NC(=O)[C@@H](Cc2ccccc2)NC(=O)[C@H](N)CSSC[C@H](C(=O)NCC(=O)NCC(=O)NCC(=O)N[C@@H](CCCNC(=N)N)C(=O)N2CCC[C@H]2C(=O)N2CCC[C@H]2C(=O)N[C@@H](CCCNC(=N)N)C(=O)N[C@@H](CCCNC(=N)N)C(=O)N[C@@H](C)C(=O)N[C@@H](CCCNC(=N)N)C(=O)O)NC(=O)[C@H](CCC(=O)O)NC(=O)[C@H](CCCNC(=N)N)NC(=O)[C@H](CCCNC(=N)N)NC(=O)[C@H](CCCCN)NC(=O)[C@H](CCC(N)=O)NC(=O)[C@H](CCCCN)NC1=O [MN-2] (H-[dC][dF]LQYAVLKQKRRE[dC]GGGRPPRRAR-OH; disulfide 1-15) | 12.3 ± 1.2 nM | – | 20.6 ± 2.2 nM | 18.2 ± 1.9 nM | undetectable cytotoxicity |
| CC[C@@H](C)[C@H]1NC(=O)[C@H](N)CSSC[C@H](C(=O)NCC(=O)NCC(=O)NCC(=O)N[C@@H](CCCNC(=N)N)C(=O)NCC(=O)N[C@@H](CCC(=O)O)C(=O)N[C@@H](CCCNC(=N)N)C(=O)N2CCC[C@H]2C(=O)N2CCC[C@H]2C(=O)N[C@@H](CCCNC(=N)N)C(=O)O)NC(=O)[C@H](CCCCN)NC(=O)[C@H](CCCNC(=N)N)NC(=O)[C@H](CCC(N)=O)NC(=O)[C@H](CCCNC(=N)N)NC(=O)[C@H](CCCCN)NC(=O)[C@H](CCCCN)NC(=O)[C@H](Cc2ccccc2)NC(=O)[C@H](C(C)C)NC(=O)[C@H](C)NC(=O)[C@H](CC(C)C)NC(=O)[C@H](CCC(N)=O)NC(=O)[C@H](CC(C)C)NC1=O [MN-3] (H-[dC][dI]LQLAVFKKRQRK[dC]GGGRGERPPR-OH; disulfide 1-15) | 110 ± 6.7 nM | – | 209 ± 7.6 nM | 206 ± 8.8 nM | – |
| CC(C)C[C@@H]1NC(=O)[C@H](C(C)C)NC(=O)[C@H](C)NC(=O)[C@H](Cc2ccccc2)NC(=O)[C@H](CCC(N)=O)NC(=O)[C@H](CC(C)C)NC(=O)[C@@H](Cc2c[nH]c3ccccc23)NC(=O)[C@H](N)CSSC[C@H](C(=O)NCC(=O)NCC(=O)N[C@@H](CCCNC(=N)N)C(=O)N2CCC[C@H]2C(=O)N[C@@H](C)C(=O)N[C@@H](CCCNC(=N)N)C(=O)N2CCC[C@H]2C(=O)N[C@@H](C)C(=O)N[C@@H](CCCNC(=N)N)C(=O)O)NC(=O)[C@H](C)NC(=O)[C@H](CCC(N)=O)NC(=O)[C@H](CCCCN)NC(=O)[C@H](CCCCN)NC(=O)[C@H](CCC(=O)O)NC(=O)[C@H](CCCNC(=N)N)NC1=O [MN-4] (H-[dC][dW]LQFAVLREKKQA[dC]GGRPARPAR-OH; disulfide 1-15) | 15.1 ± 3.3 nM | – | 119 ± 6.1 nM | 116 ± 5.5 nM | – |
